The data set relates to OVSAHO cells. The experiment in a line: cell viability of OVSAHO cells. In kind it is cell-based. The conditions noted are these: for effect of combining the drug with 1 on inhibiting OVSAHO cells: compared with 1 alone; for 24 h cytotoxicity against OVSAHO: drug alone.

Regarding `CC(C)(C)c1ccc(S(=O)(=O)/C=C/C#N)cc1` [BAY11–7085], the “effect of combining the drug with 1 on inhibiting OVSAHO cells” value (shortened to “effect … on inhibiting OVSAHO cells”) (combined with 1 (20 μM), 24 h) is recorded as “slightly enhances”.

Take `CC(C)C[C@H](NC(=O)[C@H](Cc1ccccc1)NC(=O)c1cnccn1)B(O)O` [BTZ, bortezomib]: the “effect … on inhibiting OVSAHO cells” value (combined with 1 (20 μM), 24 h) is “No inhibition enhancement”.

Take `COC(=O)[C@@]1(O)C[C@H]2O[C@]1(C)n1c3ccccc3c3c4c(c5c6ccccc6n2c5c31)C(=O)NC4` [K252A]: the “effect … on inhibiting OVSAHO cells” value (combined with 1 (20 μM), 24 h) was “slightly enhances”.

As to `O=C(C1CC1)N1CCN(Cn2sc3ccccc3c2=O)CC1` [LOC14], the “effect … on inhibiting OVSAHO cells” value (combined with 1 (20 μM), 24 h) is “No inhibition enhancement”.

As for `N.N.[Cl][Pt][Cl]` [cisplatin], where the note is “combined with 1 (20 μM), 24 h”, the “effect … on inhibiting OVSAHO cells” value was “slightly enhances”.

Consider `COc1cccc2c1C(=O)c1c(O)c3c(c(O)c1C2=O)C[C@@](O)(C(=O)CO)C[C@@H]3O[C@H]1C[C@H](N)[C@H](O)[C@H](C)O1` [doxorubicin], for which the “cell viability of OVSAHO treated with 1 combined with the drug” value (combined with 1 (20 μM), 24 h) is listed as roughly 20%. Also, the “24 h cytotoxicity against OVSAHO” value is, setting by setting: (1.25 μM) “around 75%”; (2.5 μM) “around 75%”; (5 μM) “around 75%”.

Consider `CC(=O)O[C@H]1C(=O)[C@@]2(C)[C@H]([C@H](OC(=O)c3ccccc3)[C@]3(O)C[C@H](OC(=O)[C@H](O)[C@@H](NC(=O)c4ccccc4)c4ccccc4)C(C)=C1C3(C)C)[C@]1(OC(C)=O)CO[C@@H]1C[C@@H]2O` [paclitaxel], for which the “effect … on inhibiting OVSAHO cells” value (combined with 1 (20 μM), 24 h) is reported as “No inhibition enhancement”.

Consider `Cn1ncnc1[C@H]1c2n[nH]c(=O)c3cc(F)cc(c23)N[C@@H]1c1ccc(F)cc1` [talazoparib], for which the “effect … on inhibiting OVSAHO cells” value (combined with 1 (20 μM), 24 h) was “No inhibition enhancement”.

Regarding PACMA31, the “effect … on inhibiting OVSAHO cells” value (combined with 1 (20 μM), 24 h) is “No inhibition enhancement”.
